Type in all cases: in vivo
Data set [1] deals with Echinochloa oryzacola Vasing. The data set is described as follows: Test Example 1: herbicidal activity, application before weed generation in submerged conditions (symbol A). As to conditions: application herbicide amount 320 g/ha. The essentials: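 Flooded alluvial soil (4 cm water) was mixed-sown with the three weed species, and 2.5-leaf rice seedlings were transplanted. On sowing day, a water-diluted emulsion at a predetermined rate was applied to the water surface. After 3 weeks in a 25–30 °C greenhouse, effect was scored 0–5.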

Data set [2] relates to Cyperus difformis. The data set can be described thus: Test Example 3: herbicidal effect by foliage application, Wagner pot (symbol E). The following applies: application herbicide amount 320 g/ha, Table 24. Put shortly:
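Foliar spray of water-diluted emulsion formulation at a predetermined herbicide amount onto 14-day-old plants in flooded alluvial soil (water depth 0.1–0.5 cm), greenhouse 25–30 °C; rice sown alongside. Scored 3 wk post-application on set criteria.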

Data set [3] deals with Setaria viridis. The data set is described as follows: Test Example 4: herbicidal effect by soil treatment (symbol G). The following applies: application herbicide amount 320 g/ha. Put shortly:
(§1)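 Seeds were sown in sterilized diluvial soil, covered with about 1.5 cm of soil, and the soil surface was sprayed with a water-diluted emulsion of the compound at a predetermined rate. Plants grew in a greenhouse at 25° C. to 30° C.; effects were scored visually 3 weeks after application.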

For data set [4], the system named is Alopecurus myosuroides. The data set can be described thus: Test Example 4: herbicidal effect by soil treatment (symbol J). As to conditions: application herbicide amount 320 g/ha. Put shortly:
as §1

The subject of data set [5] is Lolium multiflorum Lam. The data set is described as follows: Test Example 4: herbicidal effect by soil treatment (symbol K). The following applies: application herbicide amount 320 g/ha. The essentials: as §1
For data set [6], the system named is Apera spica-venti. The data set is described as follows: Test Example 4: herbicidal effect by soil treatment (symbol L). The following applies: application herbicide amount 320 g/ha. The essentials: as §1
Data set [7] has as its system Galium spurium. The data set can be described thus: Test Example 4: herbicidal effect by soil treatment (symbol Q). As to conditions: application herbicide amount 320 g/ha. Put shortly: as §1
Data set [8] relates to Veronica persica. The data set can be described thus: Test Example 4: herbicidal effect by soil treatment (symbol R). As to conditions: application herbicide amount 320 g/ha. Put shortly: as §1
Data set [9] relates to corn. The data set is described as follows: Test Example 4: effect on crop by soil treatment (symbol c). As to conditions: application herbicide amount 320 g/ha. The essentials:
(§2)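 The test used sterilized diluvial soil. Seed was set down in spots and overlaid with about 1.5 cm of soil before growth in a greenhouse kept at 25° C. to 30° C.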

Data set [10] deals with soybean. The data set is described as follows: Test Example 4: effect on crop by soil treatment (symbol d). The following applies: application herbicide amount 320 g/ha. The essentials:
as §2

The test system of data set [11] is rice. The data set is described as follows: Test Example 4: effect on crop by soil treatment (symbol b). The following applies: application herbicide amount 320 g/ha. Put shortly:
as §2

Data set [12] has as its system wheat. The data set is described as follows: Test Example 4: effect on crop by soil treatment (symbol e). The following applies: application herbicide amount 320 g/ha. The essentials: as §2
Data set [13] has as its system Setaria viridis. The data set can be described thus: Test Example 5: herbicidal effect by foliage application, plastic box (symbol G). The following applies: 320 g/ha, 3 weeks after application. Put shortly:
(§3)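 Sowing in sterilized diluvial soil, 14 days' greenhouse growth at 25° C. to 30° C., then uniform small-sprayer foliar application of aqueous emulsion dilution; plants scored three weeks afterwards.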

The test system of data set [14] is Avena fatua. The data set can be described thus: Test Example 5: herbicidal effect by foliage application, plastic box (symbol I). The following applies: 320 g/ha, 3 weeks after application. The essentials: as §3
In data set [15] the test system is Alopecurus myosuroides. The data set can be described thus: Test Example 5: herbicidal effect by foliage application, plastic box (symbol J). The following applies: 320 g/ha, 3 weeks after application. Put shortly:
as §3

Data set [16] concerns Lolium multiflorum Lam. The data set can be described thus: Test Example 5: herbicidal effect by foliage application, plastic box (symbol K). As to conditions: 320 g/ha, 3 weeks after application. Put shortly:
as §3

The subject of data set [17] is Amaranthus retroflexus. The data set is described as follows: Test Example 5: herbicidal effect by foliage application, plastic box (symbol N). As to conditions: 320 g/ha, 3 weeks after application. The essentials: as §3
Data set [18] has as its system Veronica persica. The data set is described as follows: Test Example 5: herbicidal effect by foliage application, plastic box (symbol R). The following applies: 320 g/ha, 3 weeks after application. The essentials:
as §3

Data set [19] has as its system soybean. The data set can be described thus: Test Example 5: effect on crop by foliage application, plastic box (symbol d). The following applies: 320 g/ha, 3 weeks after application. The essentials: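 Sterilized diluvial soil, plastic box (21 × 13 × 7 cm); spot sowing, ~1.5 cm soil cover; greenhouse 25–30° C.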

On to `COc1cc(Br)cc(C)c1C1=C(O)CC(CC(=O)C2CC2)C1=O` (racemic) [14-001], for which the “A (Echinochloa oryzacola Vasing.) herbicidal effect grade” value in [1] was 4 (Herbicidal ratio of 70% or higher and lower than 90%). Besides, in data set [2], the “E herbicidal effect grade” value was 5 (Herbicidal ratio of 90% or more (almost completely withered)). The “G: Setaria viridis, herbicidal effect grade” value in data set [3] and in data set [13] was 5 (Herbicidal ratio of 90% or more (almost completely withered)) throughout. In addition, the “J: Alopecurus myosuroides, herbicidal effect grade” value in data set [4] and in data set [15] was 5 (Herbicidal ratio of 90% or more (almost completely withered)) throughout. The “K: Lolium multiflorum Lam., herbicidal effect grade” value in data set [5] and in data set [16] was 5 (Herbicidal ratio of 90% or more (almost completely withered)) in each case. Also, in [6], the “L: Apera spica-venti, herbicidal effect grade” value is recorded as 5 (Herbicidal ratio of 90% or more (almost completely withered)). Also, the “Q: Galium spurium, herbicidal effect grade” value in [7] is reported as 0 (Herbicidal ratio of 5% or lower (almost no effect)). Also, the “R: Veronica persica, herbicidal effect grade” value was 0 (Herbicidal ratio of 5% or lower (almost no effect)) in data set [8]; 2 (Herbicidal ratio of 20% or higher and lower than 40%) in data set [18]. For the same compound, in data set [9], the “c: corn, effect on crop grade” value is 5 (Herbicidal ratio of 90% or more (almost completely withered)). Also, the “d: soybean, effect on crop grade” value is 0 (Herbicidal ratio of 5% or lower (almost no effect)) in [10]; 2 (Herbicidal ratio of 20% or higher and lower than 40%) in data set [19]. Also, in [11], the “b: directly sowed rice plant, effect on crop grade” value is 5 (Herbicidal ratio of 90% or more (almost completely withered)). For the same compound, the “e: wheat, effect on crop grade” value in data set [12] is on record as 0 (Herbicidal ratio of 5% or lower (almost no effect)). Further, in data set [14], the “I: Avena fatua, herbicidal effect grade” value was 5 (Herbicidal ratio of 90% or more (almost completely withered)). Also, the “N: Amaranthus retroflexus, herbicidal effect grade” value (“N: Amaranthus retroflexus” for short) in data set [17] is 0 (Herbicidal ratio of 5% or lower (almost no effect)).

As for `CC#Cc1cc(C)c(C2=C(O)CC(CC(=NOC)C3CC3)C2=O)c(C)c1` (stereo not drawn) [9-008], the “A (Echinochloa oryzacola Vasing.) herbicidal effect grade” value in data set [1] is listed as 5 (Herbicidal ratio of 90% or more (almost completely withered)). For the same compound, the “E herbicidal effect grade” value in [2] was 5 (Herbicidal ratio of 90% or more (almost completely withered)). In addition, in [3], the “Herbicidal effect grade, G: Setaria viridis” value is recorded as 5 (Herbicidal ratio of 90% or more (almost completely withered)). For the same compound, the “Herbicidal effect grade, J: Alopecurus myosuroides” value in [4] is 5 (Herbicidal ratio of 90% or more (almost completely withered)). In addition, in [5], the “Herbicidal effect grade, K: Lolium multiflorum Lam.” value was 5 (Herbicidal ratio of 90% or more (almost completely withered)). Further, in [6], the “Herbicidal effect grade, L: Apera spica-venti” value is 5 (Herbicidal ratio of 90% or more (almost completely withered)). For the same compound, in data set [7], the “Herbicidal effect grade, Q: Galium spurium” value is 0 (Herbicidal ratio of 5% or lower (almost no effect)). Also, the “Herbicidal effect grade, R: Veronica persica” value in [8] is 3 (Herbicidal ratio of 40% or higher and lower than 70%). Moreover, the “Effect on crop grade, c: corn” value in [9] was 4 (Herbicidal ratio of 70% or higher and lower than 90%). The “Effect on crop grade, d: soybean” value in data set [10] is reported as 0 (Herbicidal ratio of 5% or lower (almost no effect)). In addition, in [11], the “Effect on crop grade, b: directly sowed rice plant” value is listed as 5 (Herbicidal ratio of 90% or more (almost completely withered)). Further, in data set [12], the “Effect on crop grade, e: wheat” value is given as 5 (Herbicidal ratio of 90% or more (almost completely withered)). In addition, the “G: Setaria viridis, herbicidal effect grade” value in [13] is recorded as 5 (Herbicidal ratio of 90% or more (almost completely withered)). Further, in [14], the “I: Avena fatua, herbicidal effect grade” value was 4 (Herbicidal ratio of 70% or higher and lower than 90%). Further, in [15], the “J: Alopecurus myosuroides, herbicidal effect grade” value is reported as 5 (Herbicidal ratio of 90% or more (almost completely withered)). The “K: Lolium multiflorum Lam., herbicidal effect grade” value in data set [16] is 5 (Herbicidal ratio of 90% or more (almost completely withered)). In data set [17], the “N: Amaranthus retroflexus” value was 0 (Herbicidal ratio of 5% or lower (almost no effect)). Besides, the “R: Veronica persica, herbicidal effect grade” value in [18] was 4 (Herbicidal ratio of 70% or higher and lower than 90%). The “d: soybean, effect on crop grade” value in [19] is 3 (Herbicidal ratio of 40% or higher and lower than 70%).

Turning to `CC#Cc1cc(C)c(C2=C(O)CC(CC(=NOC)C(C)C)C2=O)c(C)c1` (stereo not drawn) [9-006], in data set [1], the “A (Echinochloa oryzacola Vasing.) herbicidal effect grade” value was 5 (Herbicidal ratio of 90% or more (almost completely withered)). Further, in data set [2], the “E herbicidal effect grade” value is listed as 5 (Herbicidal ratio of 90% or more (almost completely withered)). The “Herbicidal effect grade, G: Setaria viridis” value in [3] was 5 (Herbicidal ratio of 90% or more (almost completely withered)). In addition, in [4], the “Herbicidal effect grade, J: Alopecurus myosuroides” value is recorded as 5 (Herbicidal ratio of 90% or more (almost completely withered)). Besides, the “Herbicidal effect grade, K: Lolium multiflorum Lam.” value in data set [5] was 5 (Herbicidal ratio of 90% or more (almost completely withered)). For the same compound, in data set [6], the “Herbicidal effect grade, L: Apera spica-venti” value was 5 (Herbicidal ratio of 90% or more (almost completely withered)). Moreover, the “Herbicidal effect grade, Q: Galium spurium” value in [7] was 0 (Herbicidal ratio of 5% or lower (almost no effect)). In data set [8], the “Herbicidal effect grade, R: Veronica persica” value is 4 (Herbicidal ratio of 70% or higher and lower than 90%). Besides, the “Effect on crop grade, c: corn” value in data set [9] was 5 (Herbicidal ratio of 90% or more (almost completely withered)). The “Effect on crop grade, d: soybean” value in data set [10] was 0 (Herbicidal ratio of 5% or lower (almost no effect)). In addition, the “Effect on crop grade, b: directly sowed rice plant” value in data set [11] was 5 (Herbicidal ratio of 90% or more (almost completely withered)). Further, in data set [12], the “Effect on crop grade, e: wheat” value is given as 5 (Herbicidal ratio of 90% or more (almost completely withered)). Further, the “G: Setaria viridis, herbicidal effect grade” value in data set [13] is 5 (Herbicidal ratio of 90% or more (almost completely withered)). Also, in data set [14], the “I: Avena fatua, herbicidal effect grade” value was 4 (Herbicidal ratio of 70% or higher and lower than 90%). For the same compound, in data set [15], the “J: Alopecurus myosuroides, herbicidal effect grade” value is 5 (Herbicidal ratio of 90% or more (almost completely withered)). Also, in data set [16], the “K: Lolium multiflorum Lam., herbicidal effect grade” value is reported as 5 (Herbicidal ratio of 90% or more (almost completely withered)). In [17], the “N: Amaranthus retroflexus” value was 0 (Herbicidal ratio of 5% or lower (almost no effect)). Also, the “R: Veronica persica, herbicidal effect grade” value in data set [18] was 4 (Herbicidal ratio of 70% or higher and lower than 90%). The “d: soybean, effect on crop grade” value in data set [19] is given as 0 (Herbicidal ratio of 5% or lower (almost no effect)).

(Values after US11000033B2, “Ketone or oxime compound, and herbicide” (NISSAN CHEMICAL CORPORATION, priority 2014, dated 2021).)
